Laboratory results: US20180325891A1, “OCTAHYDRO AZADECALIN FORMULATIONS” (Corcept Therapeutics, Inc., priority 2017, published 2018)

Assay: Solubility assessment of CORT125281 in various excipients
Assay type: physicochemical
Protocol: The solubility of the API was assessed in Labrasol, Kolliphor RH40, Kollisolv P124 and Kolliphor HS15 in order to assess scope for formulation alternatives. […] It is probable that these would be able to be solubilized given more time/energy input.

Cn1ncc(S(=O)(=O)N2CC[C@H]3Cc4c(cnn4-c4ccc(F)cc4)C[C@]3(C(=O)c3cc(C(F)(F)F)ccn3)C2)n1 [CORT125281, ((4aR,8aS)-1-(4-fluorophenyl)-6-((2-methyl-2H-1,2,3-triazol-4-yl)sulfonyl)-4,4a,5,6,7,8,8a,9-octahydro-1H-pyrazolo[3,4-g]isoquinolin-4a-yl)(4-(trifluoromethyl)pyridin-2-yl)methanone]
solubility of the API in excipient, visual and microscopic analysis (Kolliphor HS15 mix): visibly clear, but upon microscopic analysis, they were found to contain a small number of API crystals
solubility of the API in excipient, visual and microscopic analysis (Labrasol mix): visibly clear, but upon microscopic analysis, they were found to contain a small number of API crystals
solubility of the API in excipient (in Kolliphor RH40): < 40 mg/g
solubility of the API in excipient (in Kollisolv P124): < 40 mg/g
